Converted amounts (≈) assume the structure as drawn.
How the values were obtained:
Assay type in all cases: cell-based
[1] = tested on: Escherichia coli; assay: MIC by broth dilution, Escherichia coli; conditions: Escherichia coli, Gram negative, 0.98-125 µg/mL, read-out: Minimum Inhibitory Concentration (MIC) (µg/mL) Escherichia coli
Experimental: (§1) In this study, MIC (quantitative method) was used for evaluation of the antimicrobial activity of tested compounds. Screening was evaluated in vitro using the Broth dilution method according to CLSI [45]. All the bacteria were incubated and activated at 30 °C for 24 h inoculation into nutrient broth and the fungi were incubated in malt extract broth for 48 h. The compounds were dissolved in DMSO and then diluted using […] Mueller-Hinton broth. […] In each case triplicate tests were performed and the average was taken as the final reading. The tubes were then inoculated with the test organisms, grown in their suitable broth at 37 °C for 24 h for tested microorganisms (1 × 10^8 CFU/mL for bacteria and 1 × 10^6 CFU/mL of fungi), each 5 mL received 0.1 mL of the above inoculum and incubated at 37 °C for 24 h.

[2] = tested on: Candida albicans; assay: MIC by broth dilution, Candida albicans; conditions: Fungi, 0.98-125 µg/mL, read-out: Minimum Inhibitory Concentration (MIC) (µg/mL) Candida albicans
Experimental: (§2) The disk diffusion method was used for determination of the antimicrobial activity using ampicillin, gentamicin and amphotericin B as reference drugs. The results were recorded for each compounds as the average diameter as inhibition zones (IZ) of bacterial or fungal growth around the discs in mm as shown in Table 2.
as §1

[3] = tested on: Candida albicans; assay: Disk diffusion, Candida albicans; conditions: Fungi, 8.0 mm disks, 10 μL
Experimental: as §2
(§3) Antimicrobial activities were carried out against highly pathogenic strains; three strains of Gram positive bacteria (Bacillus subtilis, Staphylococcus aureus and Streptococcus faecalis), four strains of Gram negative bacteria (Escherichia coli, Neisseria gonorrhoeae, Pseudomonas aeruginosa and Salmonella typhimurium) and three fungi strains (Aspergillus flavus, Aspergillus fumigatus and Candida albicans) isolated from primary agar plates. Antimicrobial activity of the tested samples was determined using a modified Kriby-Bauer disk diffusion method. Briefly, 100 µL of the test bacteria/fungi were grown in 10 mL of fresh media until they reached a count approximately 10^8 cells/mL for bacteria or 10^5 cells/mL for fungi. 100 µL of microbial suspension was spread onto agar plates corresponding to the broth in which they were maintained. The inoculated plates of bacterial strains were incubated at 35–37 °C for 24–48 h, while the inoculated plates of fungal strains such as A. flavus and A. fumigatus were incubated at 25 °C for 48 h and yeast as C. albicans was incubated at 30 °C for 24–48 h.
(§4) The agar disk diffusion (qualitative) method was used in this investigation for determination of the preliminary antibacterial and antifungal activities. The agar used was Mueller-Hinton agar plates that are rigorously tested for composition and pH. Further the depth of the agar in the plate is a factor to be considered in the disk diffusion method.
(§5) Reference drugs: ampicillin was used as a standard antibacterial drug for Gram positive bacteria, gentamicin as a standard antibacterial drug for Gram negative bacteria and amphotericin B as antifungal standard drug.
Bacterial and fungal strains were spread onto the surface of the agar plates using sterile cotton swabs. For evaluation of antibacterial activities, blank paper disks (Schleicher & Schuell, Alicante, Spain) with a diameter of 8.0 mm were saturated with 10 μL of tested concentration of the stock solutions. Disks were dried and then placed onto inoculated agar plates. The plates of bacterial strains were reincubated at 35–37 °C for 24–48 h, while the plates of fungal strains such as A. flavus and A. fumigatus were reincubated at 25 °C for 48 h and yeast as C. albicans was reincubated at 30 °C for 24–48 h as mentioned above. […] For an accurate analysis, tests were run in triplicate for each strain to avoid any error as described in Table 2.
Disk diffusion method for filamentous fungi testing by using approved standard method (M02-A11) developed by the CLSI for evaluating the susceptibilities of filamentous fungi to antifungal agents. Disk diffusion method for yeasts developed by using approved standard method (M44-A2) by the CLSI [44]. Agar-based methods such as disk diffusion can be good alternatives because they are simpler and faster than broth-based methods.

[4] = tested on: A. fumigatus and C. albicans; assay: MIC by broth dilution, summary over A. fumigatus and C. albicans; conditions: range over both fungi
Experimental: as §2, §1

[5] = tested on: A. fumigatus and C. albicans; assay: Disk diffusion, summary over A. fumigatus and C. albicans; conditions: range over both fungi
Experimental: as §2, §3, §4, §5
Bacterial and fungal strains were spread onto the surface of the agar plates using sterile cotton swabs. […]

[6] = tested on: Aspergillus fumigatus; assay: MIC by broth dilution, Aspergillus fumigatus; conditions: Fungi, 0.98-125 µg/mL, read-out: Minimum Inhibitory Concentration (MIC) (µg/mL) Aspergillus fumigatus
Experimental: as §2, §1

[7] = tested on: Gram positive and negative bacteria; assay: MIC by broth dilution, summary over bacterial strains; conditions: range over bacterial strains as summarised in text
Experimental: as §2, §1

[8] = tested on: Gram positive and negative bacteria; assay: Disk diffusion, summary over bacterial strains; conditions: range over bacterial strains as summarised in text
Experimental: as §2
as §3, with “The inoculated plates of bacterial strains were incubated at 35–37 °C for 24–48 h, while the inoculated plates of fungal strains such as A. flavus and A. fumigatus were incubated at 25 °C for 48 h and yeast as C. albicans was incubated at 30 °C for 24–48 h.” left out

MIC [1] [µg/mL]	MIC [2] [µg/mL]	MIC range against A. fumigatus and C. albicans [4] [µg/mL]	MIC [6] [µg/mL]	SMILES	Inhibition Zone Diameter (IZ) (mm) Candida albicans [3]	IZ range against A. fumigatus and C. albicans [5]	MIC range against Gram positive and negative bacteria [7] [µg/mL]	IZ range against Gram positive and negative bacteria [8]
125 (≈ 375 µM)	62.5 (≈ 188 µM)	0.98 to 62.5	31.2 (≈ 93.8 µM)	Brc1ccc2nc(N3CCCCC3)c3nnnn3c2c1 [Compound 5a, 8-Bromo-4-(piperidin-1-yl)tetrazolo[1,5-a]quinoxaline]	12 mm	5–13 mm	–	–
3.9 (≈ 13.7 µM)	3.9 (≈ 13.7 µM)	–	–	Clc1nc2ccc(Br)cc2n2nnnc12 [Compound 4, 8-Bromo-4-chlorotetrazolo[1,5-a]quinoxaline]	20 mm	–	–	–
1.95 (≈ 5.82 µM)	3.9 (≈ 11.6 µM)	0.98 to 62.5	1.95 (≈ 5.82 µM)	Brc1ccc2nc(N3CCOCC3)c3nnnn3c2c1 [Compound 5b, 8-Bromo-4-(morpholin-4-yl)tetrazolo[1,5-a]quinoxaline]	9 mm	5–13 mm	–	–
3.9 (≈ 11.7 µM)	–	–	–	Cc1cc(C)n(-c2nc3cc(Br)ccc3nc2NN)n1 [Compound 14, 6-Bromo-3-(3,5-dimethyl-1H-pyrazol-1-yl)-2-hydrazinyl quinoxaline]	R (R (IZ = 0 mm))	–	–	–
62.5 (≈ 215 µM)	–	–	–	Brc1ccc2c(c1)n1nnnc1c1nnnn21 [Compound 11, 9-Bromoditetrazolo[1,5-a:5′,1′-c]quinoxaline]	R (R (IZ = 0 mm))	–	–	–
1.95 (≈ 7.25 µM)	0.98 (≈ 3.64 µM)	0.98 to 62.5	0.98 (≈ 3.64 µM)	NNc1nc2ccc(Br)cc2nc1NN [Compound 9, 6-Bromo-2,3-dihydrazinylquinoxaline]	11 mm	5–13 mm	–	–
3.9 (≈ 9.67 µM)	–	–	–	NC1=NN(c2nc3ccc(Br)cc3nc2N2N=C(N)CC2=O)C(=O)C1 [Compound 16, 6-Bromo-2,3-bis(3-amino-1H-pyrazol-5(4H)-one)quinoxaline]	R (R (IZ = 0 mm))	–	–	–

SMILES	MIC [1] [µg/mL]	MIC [2] [µg/mL]	MIC range against A. fumigatus and C. albicans [4] [µg/mL]	MIC [6] [µg/mL]	Inhibition Zone Diameter (IZ) (mm) Candida albicans [3]	IZ range against A. fumigatus and C. albicans [5]	MIC range against Gram positive and negative bacteria [7] [µg/mL]	IZ range against Gram positive and negative bacteria [8]
NNc1nc2cc(Br)ccc2nc1Cl [Compound 3, 6-Bromo-2-chloro-3-hydrazinylquinoxaline]	3.9 (≈ 14.3 µM)	–	–	–	R (R (IZ = 0 mm))	–	0.98 to 125	13–15 mm

Reference: publication PMC6332220, “Synthesis, Characterization and Biological Evaluation of Some Quinoxaline Derivatives: A Promising and Potent New Class of Antitumor and Antimicrobial Agents” (Molecules, 2015)
